Like-named read-outs stand apart in the source and are kept apart here.
Experiments:
Type in all cases: cell-based, rat
[1] = tested on: single NaV channels in GH3 cells; assay: Cell-attached single-channel NaV current recordings in GH3 cells; conditions: n = 7
Procedure: The composition of the external or bath solution [4-(2-hydroxyethyl)-1-piperazineethanesulfonic acid (HEPES)-buffered normal Tyrode’s solution] was as follows: 136.5 mM NaCl, 1.8 mM CaCl2, 5.4 mM KCl, 0.53 mM MgCl2, 5.5 mM glucose, and 5.5 mM HEPES–NaOH (pH 7.4). To measure K^+ currents (data not shown), we filled a patch pipette with an internal solution comprising 140 mM KCl, 1 mM MgCl2, 3 mM adenosine 5′-triphosphate disodium salt, 0.1 mM guanosine 5′-triphosphate disodium salt, 0.1 mM ethylene glycol tetraacetic acid, and 5 mM HEPES–KOH buffer (pH 7.2). To record the whole-cell INa, the K^+ in the internal solution was substituted with Cs^+, and the pH of the solution was adjusted to 7.2 by adding cesium hydroxide. In the single-channel experiments performed to record NaV currents, the pipette was filled with a Na^+-rich solution containing 136 mM NaCl, 0.53 mM MgCl2, 5.5 mM glucose, and 5.5 mM HEPES–NaOH (pH 7.2). The bath medium was a K^+-rich solution comprising 130 mM KCl, 10 mM NaCl, 3 mM MgCl2, 6 mM glucose, and 10 mM HEPES-KOH (pH 7.4). The solutions and culture media were generally filtered on the day of use by using sterile Acrodisc Syringe Filters containing a 0.2-μm Supor Membrane (Bio-Check; New Taipei City, Taiwan).
Single-channel NaV currents induced by depolarizing pulses ranging from −100 to −10 mV were measured and subsequently analyzed using pCLAMP 10.7. The opening events of the channels were generally evaluated through multi-Gaussian adjustments of the distribution of amplitude across channels. Functional independence between channels was determined by comparing the observed stationary probabilities with the values calculated based on the binomial law. For dwell-time analyses, only a single channel was used in the patch-clamp experiment.
To elucidate the mechanisms underlying the effects of SAF on the magnitude of INa, we investigated the actions of SAF and SAF plus MGB on single-channel NaV currents. This experiment was performed using the cell-attached configuration of the voltage-clamp test. Test cells were placed in K^+-rich solution, and the recording pipette was filled with Na^+-rich solution. SAF (10 μM) increased channel activity and decelerated current inactivation when the cells were exposed to depolarization stimuli ascending from –100 to –10 mV (rate of 0.1 Hz; Fig. 9A). Furthermore, the addition of MGB (10 μM) in the presence of 10 μM SAF reduced the probability of channel opening. […] Moreover, with the presence of 10 μM SAF, the mean open time of NaV channels was prolonged to […] (n = 7, P < 0.05) msec from a control value of 2.3 ± 0.3 msec (n = 7). […] Consistent with these findings, the mean open time of the NaV channel in the presence of 10 μM SAF (5.9 ± 1.1 ms; n = 7; P < 0.05) was longer than that in the control period (2.3 ± 0.3 ms, n = 7); the subsequent further addition of 10 μM MGB decreased the mean open time to 3.7 ± 0.7 ms (n = 7, P < 0.05) (Fig. 9B). […] MGB added during SAF exposure reversed the SAF-induced increase in NaV channel activity.

[2] = tested on: voltage-gated sodium ion (NaV) channels in pituitary GH3 cells; assay: Whole-cell INa(T) decay during a 1-s, 20-Hz train of depolarizing pulses in GH3 cells; conditions: for effect on SAF-induced increase in decaying time constant of INa(T): 10 μM added in the presence of 10 μM SAF; for decaying time constant of INa(T) during train of depolarizing pulses: 10 μM alone, control 66 ± 5 ms, n = 7
Procedure: Shortly before experiments, GH3 was carefully suspended in normal Tyrode’s solution at room temperature (20–25 °C). A few drops of the suspension containing cell clumps were immediately added to a custom-built chamber on the stage of an inverted Diaphot-200 microscope (Nikon, Tokyo, Japan). Pipettes were pulled from Kimax-51 soft-glass capillaries (#34500-99; Kimble, Vineland, NJ) by using a Narishige PP-830 Vertical Puller (Tokyo, Japan), and their tips were fire-polished using a microforge (MF-83, Narishige). During the measurements, an electrode with a tip resistance of 2–4 MΩ, which was tightly inserted into a holder, was maneuvered using a WR-98 micromanipulator (Narishige). Patch-clamp experiments were performed in the voltage-clamp mode with either cell-attached or whole-cell configuration (rupturing of the membrane patch after GΩ formation) by using a RK-400 Patch-Clamp Amplifier (Bio-Logic, Claix, France) connected to a laptop. Shortly before GΩ formation, potential correction was performed for a liquid junction potential, which developed at the electrode’s tip because of the difference in the compositions of the internal and bath solutions.
SAF is efficacious as an add-on therapy following subthalamic nucleus deep brain stimulation in patients with Parkinson’s disease. Therefore, we investigated whether SAF could modify the inactivation of currents induced by a train of depolarizing stimuli. The test cells were maintained at −80 mV and subjected to repetitive depolarization to −10 mV (40 ms per pulse; rate of 20 Hz; duration of 1 s). Similar to the findings of relevant studies, during the control period (the absence of SAF), INa(T) inactivation was noticed to be induced by 1 s of repetitive depolarization stimuli (−80 to −10 mV) with a decaying time constant of 65 ± 4 ms (n = 7; Fig. 6A, 6B and 6C). […] In the presence of 3 and 10 μM SAF, the exponential time course of INa(T) induced by the same train of depolarizing pulses was longer at 107 ± 5 ms (n = 7, P < 0.05) and 124 ± 6 ms (n = 7, P < 0.05), respectively. Furthermore, as MGB and ranolazine have been reported to suppress the amplitude of INa effectively, we added ranolazine (Ran; 10 μM) and mirogabalin (MGB; 10 μM) separately in the presence of 10 μM SAF. […] The application of Ran (10 μM) or MGB (10 μM) alone decreased the decaying time constant of INa(T) during the same train of depolarizing pulses to 39 ± 4 ms (n = 7, P < 0.05) or 42 ± 4 ms (n = 7, P < 0.05), respectively, from a control value of 66 ± 5 ms (n = 7). Thus, in addition to increasing the magnitude of INa(T), SAF prominently affects the decaying of INa(T) subjected to a 1-s train of depolarizing pulses.
Fig. 6 Effect of SAF on INa(T) decay induced by a train of depolarizing pulses in GH3 cells. The train of pulses comprised twenty 40-ms pulses (voltage increased to −10 mV) with 10-ms intervals at −80 mV for a total duration of 1 s. (A) Current traces during the control period (a, blue) and during exposure to 10 μM SAF (b, red). The voltage-clamp protocol used is indicated atop the current traces. In panel A, the third graphs (blue and red) from the top are the expanded forms of the second graphs (brown dashed boxes). (B) The relative amplitude of INa(T) versus pulse train duration in the absence (blue open circles) and presence (red open squares) of 10 μM SAF (mean ± standard error of the mean; n = 7 for each point). The INa(T) amplitudes were normalized by dividing the current amplitudes at the end of each pulse-train stimulation by those obtained at the beginning of the pulse train stimulation. The gray continuous lines on which the data points are overlaid are reliably fitted with a single exponential.

[3] = tested on: voltage-gated sodium ion (NaV) channels in pituitary GH3 cells; assay: Whole-cell patch-clamp of INa induced by a 30-ms depolarizing pulse (−100 to −10 mV) in GH3 cells; conditions: for reversal of SAF-mediated increase in INa(T): 10 μM added during exposure to SAF (30 μM); for reversal of SAF-mediated increase in INa(T) / effect on magnitude of INa(T): n = 7; for effect on magnitude of INa(T): dopamine or serotonin alone
[4] = tested on: voltage-gated sodium ion (NaV) channels in pituitary GH3 cells; assay: Window INa [INa(W)] induced by ascending ramp voltage (−100 to +40 mV over 200 ms) in GH3 cells; conditions: Ran 10 μM added in the presence of SAF 10 μM
Description: The sigmoidal relationship between Vramp-induced INa(W) and the upsloping Vramp (nonlinear current–voltage relationship) was investigated and fitted with the Boltzmann function as follows: [drawing 2]
where V is the membrane potential in millivolts, Erev is the reversal potential of INa, G is the INa conductance in nanosiemens, I is the current, Vh is the voltage at which half-maximal activation or inactivation of the current occurs, q is the apparent gating charge, F is Faraday’s constant, R is the universal gas constant, and T is the absolute temperature.
The free energy ∆G0 for the gating of INa(W) was determined by assuming a two-state gating model [equilibrium between closed (resting) and open states] of the NaV channel. The ∆G0 for the activation of INa(W) at 0 mV could be calculated as follows: q × F × V1/2 [45, 46]. The standard errors in ∆G0 ( [drawing 3] ) could be calculated as follows: […]
In the present study, we investigated whether the addition of SAF to GH3 cells modulates the magnitude of INa(W) induced by ascending Vramp. Test cells were maintained at −80 mV and subjected to Vramp ascending from −100 to +40 mV over 200 ms (i.e., ramp speed of 0.7 mV/ms) to induce INa(W). […] The ∆area values of INa(W) in the absence and presence of SAF and SAF plus Ran were calculated (Fig. 7B).
Fig. 7 Stimulatory effects of SAF on window INa [INa(W)] induced by an ascending ramp voltage Vramp in GH3 cells. For the experiments, the test cells were maintained at −80 mV and subjected to Vramp ranging from −100 to +40 mV over 200 ms (ramp speed of 0.7 mV/ms). (A) INa(W) trace in the absence (a, blue) and presence (b, red) of 10 μM SAF. The inset indicates the Vramp protocol, and the downward deflection indicates inward-directed current. The continuous gray lines corresponding to the untreated or SAF-treated (10 μM) cells were fitted (least-squares minimization) with the Boltzmann equation. The values of […] and q (apparent gating charge) induced by ascending Vramp over 200 ms in the absence (blue) of SAF were, respectively, −34 mV and 2.1 e; the corresponding values in the presence (red) of 10 μM SAF were −38 mV and 2.8 e, respectively. (B) Summary graph illustrating the effects of SAF (3 and 10 μM) and SAF (10 μM) plus Ran (10 μM) on the Δarea of INa(W) in GH3 cells (mean ± standard error of the mean; n = 7 for each point). The value of Δarea was measured at a voltage ranging from −80 and +40 mV, which corresponded to INa(W) induced by the ascending Vramp. […] (C) Summary graph illustrating the effects of SAF (3 and 10 μM) and SAF plus Ran (10 μM) on ΔG0 (mean ± standard error of the mean; n = 7 for each point). The estimation of ΔG0 for the induction of instantaneous INa(W) is described in the Materials and Methods section.

[5] = 10 μM MGB added in the presence of 10 μM SAF

For `CCC1=C[C@@H]2[C@H](C1)C[C@]2(CN)CC(=O)O` [MGB, mirogabalin], the “mean open time of the NaV channel” value [1, 5] was 3.7 ± 0.7 ms, the “open-state probability of the NaV channel” value [1, 5] was 0.041 ± 0.007 and the “amplitude of the single-channel current” value ([1]; SAF plus MGB, control 2.01 ± 0.35 pA) was 2.00 ± 0.44 pA. For the same compound, the “effect on SAF-induced increase in decaying time constant of INa(T)” value [2] was “effectively attenuated the SAF-induced increase in the decaying time constant” and the “decaying time constant of INa(T) during train of depolarizing pulses” value [2] was 42 ± 4 ms.

With `C/C=C/C1C(C(=O)OCc2c(F)c(F)c(COC)c(F)c2F)C1(C)C` (stereo not drawn) [metofluthrin] the “effect on rapid inward current (INa) induced by short depolarizing pulse” value (“effect on rapid inward current” below) ([3]; 10 μM) was “stimulated”.

In the case of `NCCc1ccc(O)c(O)c1` [dopamine], the “reversal of SAF-mediated increase in INa(T)” value [3] is reported as “neither dopamine nor serotonin reversed the SAF-mediated increase in INa(T)” and the “effect on magnitude of INa(T)” value [3] is reported as “neither dopamine nor serotonin altered the magnitude of INa(T)”.

With `NCCc1c[nH]c2ccc(O)cc12` [serotonin] the “reversal of SAF-mediated increase in INa(T)” value [3] was “neither dopamine nor serotonin reversed the SAF-mediated increase in INa(T)” and the “effect on magnitude of INa(T)” value [3] was “neither dopamine nor serotonin altered the magnitude of INa(T)”.

For `NC1=N[C@H](O)[C@H]2[C@H]3O[C@]4(O)O[C@@H]([C@@H](O)[C@@]2(N1)[C@@H]4O)[C@]3(O)CO` [TTX, tetrodotoxin], the “amplitude of INa(L)” value [3] was 2 ± 1 pA, the “amplitude of INa(T)” value [3] was 18 ± 2 pA and the “effect on rapid inward current” value [3] was “blocked”.

With `COc1ccccc1OCC(O)CN1CCN(CC(=O)Nc2c(C)cccc2C)CC1` (stereo not drawn) [Ran, ranolazine] the “effect on SAF-mediated increase in ∆G0 of INa(W)” value [4] was “effectively attenuated the SAF-mediated increase in ∆G0”, the “effect on SAF-mediated increase in ∆area of INa(W)” value [4] was “reversed the SAF-mediated increase” and the “effect on SAF-induced increase in decaying time constant of INa(T)” value [2] was “effectively attenuated the SAF-induced increase in the decaying time constant”. The “decaying time constant of INa(T) during train of depolarizing pulses” value [2] was 39 ± 4 ms.

For `Cc1c(F)c(F)c(COC(=O)[C@@H]2[C@H](/C=C(\Cl)C(F)(F)F)C2(C)C)c(F)c1F` (racemic) [Tef, tefluthrin], the “effect on rapid inward current” value ([3]; 10 μM) was “stimulated”.

From article PMC10851555, “Safinamide, an inhibitor of monoamine oxidase, modulates the magnitude, gating, and hysteresis of sodium ion current” (BMC Pharmacology & Toxicology, 2024)
